Laboratory results from patent publication US20250305004A1, “ENHANCING GENE TARGETING EFFICIENCY IN HUMAN CELLS WITH DNA-PK INHIBITOR TREATMENT” (The Board of Trustees of the Leland Stanford Junior …, priority 2022, published 2025).

Tests used:
ATR = biological target: T1, ATR (Homo sapiens, UniProt Q13535); conditions: A549 cells; cited from earlier work
T1 construct: various PI3K family kinases in A549 cells (data adapted from previous study); host or cells: A549 cells

CCR5 locus in PSCs = assay: RNP/AAV6 gene targeting at CCR5 locus, knock-in of UBC-GFP-bGHpA (2.6 kb), PSCs; assay type: cell-based, human; conditions: tested at 1, 0.1 and 0.01 μM
Experimental: (§1) Gene targeting efficiency was measured by droplet digital PCR (ddPCR) and flow cytometry (for GFP) to measure the allelic targeting efficiency (FIG. 2B) and percentage of targeted cells (FIG. 2C) respectively. […] The treatment was carried out for 24 hours post gene targeting and the efficiency was calculated 1 week post gene targeting using ddPCR analysis.
PSC culture and genome editing. […] For each nucleofection, RNP complex was prepared with 5 μg of Cas9 protein and 2 μg of gRNA and incubated for 15 mins at room temperature. PSCs were dissociated into single cells using Accutase (Innovative Cell Technologies, cat: AT104). […] Gene targeting efficiency was analyzed at 4-6 days post-editing.
(§2) ddPCR analysis of targeted integration. Gene targeting efficiency for the knock-in of multi-kb sequences was measured through digital droplet PCR (ddPCR) analysis. […] After PCR, the droplets were analyzed using the QX200 Droplet Digital PCR reader (Biorad) and Quantasoft software was used to determine the number of copies of the target and reference DNA in the droplets. The allelic gene targeting efficiency was calculated as the percentage of target DNA copies relative to that of the reference. […]
(§3) ICE analysis for quantification of gene editing. […] Following PCR, the amplicons were detected on agarose gel and purified from the gel using GeneJet Gel Extraction Kit (Thermo Fisher Scientific, cat: K0692). […]

HBB locus in PSCs = assay: RNP/AAV6 gene targeting at HBB locus in PSCs; assay type: cell-based, human; conditions: UBC-GFP-bGHpA knock-in; 0.5 μM
Experimental: as §1
(§4) First, we tested the treatment for editing the sickle cell disease (SCD) and cystic fibrosis (CF) mutations at HBB and CFTR loci respectively using the previously described Cas9 RNP and AAV6 donor reagents in WT PSC^71-73 (FIG. 19a-d).
PSC culture and genome editing. […] Gene targeting efficiency was analyzed at 4-6 days post-editing.
as §2, §3

PI3Kγ = biological target: T2, PI3Kγ (Homo sapiens, UniProt P48736); conditions: A549 cells; cited from earlier work
T2 construct: various PI3K family kinases in A549 cells (data adapted from previous study); host or cells: A549 cells

ATM = biological target: T3, ATM (Homo sapiens, UniProt Q13315); conditions: A549 cells; cited from earlier work
T3 construct: various PI3K family kinases in A549 cells (data adapted from previous study); host or cells: A549 cells

HBA1 locus in PSCs = assay: RNP/AAV6 gene targeting / gene replacement at HBA1 locus in PSCs; assay type: cell-based, human
Experimental: as §1, §4
PSC culture and genome editing. […] For each nucleofection, RNP complex was prepared with 5 μg of Cas9 protein and 2 μg of gRNA and incubated for 15 mins at room temperature. PSCs were dissociated into single cells using Accutase (Innovative Cell Technologies, cat: AT104). […] Resuspended cells were added to one well of a 16-well Nucleocuvette Strip (Lonza) and nucleofection was performed in the 4D nucleofector (Lonza) using the program, CA137. Nucleofected PSCs were plated in mTeSR1 medium supplemented with 10 μM of Y27632 at a density of 100,000 cells per well in 48-well plate, AAV6 vector and DNA-PKcs inhibitors were added to the medium at indicated concentrations. […] From the following day, PSCs were cultured in mTeSR1 without Y27632. Gene targeting efficiency was analyzed at 4-6 days post-editing.
as §2, §3

T3 sequence (Q13315 whole entry): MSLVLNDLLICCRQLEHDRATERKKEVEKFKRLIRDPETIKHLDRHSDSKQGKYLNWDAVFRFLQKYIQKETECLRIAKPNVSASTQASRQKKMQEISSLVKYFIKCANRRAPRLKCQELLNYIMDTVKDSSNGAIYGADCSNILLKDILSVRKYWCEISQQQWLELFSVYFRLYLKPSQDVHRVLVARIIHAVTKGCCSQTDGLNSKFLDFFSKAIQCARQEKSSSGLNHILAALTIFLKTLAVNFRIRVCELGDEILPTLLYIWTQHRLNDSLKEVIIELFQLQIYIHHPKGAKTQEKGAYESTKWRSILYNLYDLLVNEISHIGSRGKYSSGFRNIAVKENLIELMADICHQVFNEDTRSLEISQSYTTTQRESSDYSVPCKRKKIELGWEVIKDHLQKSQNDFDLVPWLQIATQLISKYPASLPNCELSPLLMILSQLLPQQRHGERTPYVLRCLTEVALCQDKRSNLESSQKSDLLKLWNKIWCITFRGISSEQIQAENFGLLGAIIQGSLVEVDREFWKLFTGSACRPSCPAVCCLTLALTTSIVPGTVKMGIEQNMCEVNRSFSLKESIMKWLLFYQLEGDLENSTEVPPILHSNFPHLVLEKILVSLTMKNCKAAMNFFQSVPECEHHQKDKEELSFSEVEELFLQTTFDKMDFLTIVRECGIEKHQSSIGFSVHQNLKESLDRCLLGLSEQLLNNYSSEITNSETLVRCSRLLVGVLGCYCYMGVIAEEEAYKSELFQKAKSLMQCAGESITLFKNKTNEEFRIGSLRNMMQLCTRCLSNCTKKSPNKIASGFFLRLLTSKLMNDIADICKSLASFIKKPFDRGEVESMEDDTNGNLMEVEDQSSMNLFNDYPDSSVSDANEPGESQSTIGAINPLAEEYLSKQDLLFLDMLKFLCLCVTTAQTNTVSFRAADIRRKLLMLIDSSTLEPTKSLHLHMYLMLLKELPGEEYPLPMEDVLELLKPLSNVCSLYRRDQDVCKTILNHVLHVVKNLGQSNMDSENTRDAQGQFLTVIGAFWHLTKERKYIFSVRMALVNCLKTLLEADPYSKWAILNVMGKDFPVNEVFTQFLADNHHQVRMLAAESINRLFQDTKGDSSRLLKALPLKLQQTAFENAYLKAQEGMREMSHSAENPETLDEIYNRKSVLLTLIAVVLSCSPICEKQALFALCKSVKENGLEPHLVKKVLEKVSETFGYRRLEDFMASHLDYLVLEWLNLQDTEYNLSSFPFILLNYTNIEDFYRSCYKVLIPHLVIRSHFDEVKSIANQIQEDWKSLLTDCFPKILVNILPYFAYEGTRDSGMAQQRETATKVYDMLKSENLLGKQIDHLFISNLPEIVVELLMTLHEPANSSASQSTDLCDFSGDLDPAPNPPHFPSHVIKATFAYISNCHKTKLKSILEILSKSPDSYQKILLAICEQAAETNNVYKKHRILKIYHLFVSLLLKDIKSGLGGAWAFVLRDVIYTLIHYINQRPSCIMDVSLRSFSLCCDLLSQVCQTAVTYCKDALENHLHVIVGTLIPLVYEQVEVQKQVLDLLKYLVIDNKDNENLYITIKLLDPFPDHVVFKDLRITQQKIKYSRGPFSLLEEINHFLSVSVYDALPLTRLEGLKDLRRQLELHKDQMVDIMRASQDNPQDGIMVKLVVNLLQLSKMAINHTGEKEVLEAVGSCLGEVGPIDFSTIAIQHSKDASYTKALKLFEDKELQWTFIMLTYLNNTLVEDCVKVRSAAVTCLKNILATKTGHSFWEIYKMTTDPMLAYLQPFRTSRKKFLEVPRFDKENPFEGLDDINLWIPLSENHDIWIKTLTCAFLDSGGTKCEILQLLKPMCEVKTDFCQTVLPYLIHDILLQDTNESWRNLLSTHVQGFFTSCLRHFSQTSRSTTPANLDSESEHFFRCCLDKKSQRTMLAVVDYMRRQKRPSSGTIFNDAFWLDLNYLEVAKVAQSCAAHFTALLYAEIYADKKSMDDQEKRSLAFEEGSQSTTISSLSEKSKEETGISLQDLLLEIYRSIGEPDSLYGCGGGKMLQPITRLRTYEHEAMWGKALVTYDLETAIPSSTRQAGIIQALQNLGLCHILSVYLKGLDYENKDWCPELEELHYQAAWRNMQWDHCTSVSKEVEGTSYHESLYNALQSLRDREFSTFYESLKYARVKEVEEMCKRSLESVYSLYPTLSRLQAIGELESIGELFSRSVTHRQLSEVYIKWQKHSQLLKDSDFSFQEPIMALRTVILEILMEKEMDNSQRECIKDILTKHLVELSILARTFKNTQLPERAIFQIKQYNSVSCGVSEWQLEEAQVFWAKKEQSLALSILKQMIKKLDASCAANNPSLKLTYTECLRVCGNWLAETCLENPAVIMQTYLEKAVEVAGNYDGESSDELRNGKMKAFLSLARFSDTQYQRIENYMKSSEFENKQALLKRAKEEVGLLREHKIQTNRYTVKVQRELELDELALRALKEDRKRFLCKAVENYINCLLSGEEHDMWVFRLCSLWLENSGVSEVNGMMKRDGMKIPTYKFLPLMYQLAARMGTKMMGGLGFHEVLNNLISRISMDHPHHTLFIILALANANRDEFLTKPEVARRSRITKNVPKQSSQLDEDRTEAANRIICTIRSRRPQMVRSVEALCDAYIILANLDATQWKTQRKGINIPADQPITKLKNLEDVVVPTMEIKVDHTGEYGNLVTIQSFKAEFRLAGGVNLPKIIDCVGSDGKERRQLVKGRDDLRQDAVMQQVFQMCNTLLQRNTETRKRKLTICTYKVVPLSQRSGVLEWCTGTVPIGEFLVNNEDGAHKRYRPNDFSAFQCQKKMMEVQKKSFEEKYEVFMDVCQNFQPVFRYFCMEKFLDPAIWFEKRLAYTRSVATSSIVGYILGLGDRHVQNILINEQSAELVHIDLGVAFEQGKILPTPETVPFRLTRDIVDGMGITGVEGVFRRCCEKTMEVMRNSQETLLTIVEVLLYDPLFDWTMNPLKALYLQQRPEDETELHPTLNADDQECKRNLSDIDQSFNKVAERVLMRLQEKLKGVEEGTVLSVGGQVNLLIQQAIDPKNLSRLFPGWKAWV
T2 sequence (P48736 whole entry): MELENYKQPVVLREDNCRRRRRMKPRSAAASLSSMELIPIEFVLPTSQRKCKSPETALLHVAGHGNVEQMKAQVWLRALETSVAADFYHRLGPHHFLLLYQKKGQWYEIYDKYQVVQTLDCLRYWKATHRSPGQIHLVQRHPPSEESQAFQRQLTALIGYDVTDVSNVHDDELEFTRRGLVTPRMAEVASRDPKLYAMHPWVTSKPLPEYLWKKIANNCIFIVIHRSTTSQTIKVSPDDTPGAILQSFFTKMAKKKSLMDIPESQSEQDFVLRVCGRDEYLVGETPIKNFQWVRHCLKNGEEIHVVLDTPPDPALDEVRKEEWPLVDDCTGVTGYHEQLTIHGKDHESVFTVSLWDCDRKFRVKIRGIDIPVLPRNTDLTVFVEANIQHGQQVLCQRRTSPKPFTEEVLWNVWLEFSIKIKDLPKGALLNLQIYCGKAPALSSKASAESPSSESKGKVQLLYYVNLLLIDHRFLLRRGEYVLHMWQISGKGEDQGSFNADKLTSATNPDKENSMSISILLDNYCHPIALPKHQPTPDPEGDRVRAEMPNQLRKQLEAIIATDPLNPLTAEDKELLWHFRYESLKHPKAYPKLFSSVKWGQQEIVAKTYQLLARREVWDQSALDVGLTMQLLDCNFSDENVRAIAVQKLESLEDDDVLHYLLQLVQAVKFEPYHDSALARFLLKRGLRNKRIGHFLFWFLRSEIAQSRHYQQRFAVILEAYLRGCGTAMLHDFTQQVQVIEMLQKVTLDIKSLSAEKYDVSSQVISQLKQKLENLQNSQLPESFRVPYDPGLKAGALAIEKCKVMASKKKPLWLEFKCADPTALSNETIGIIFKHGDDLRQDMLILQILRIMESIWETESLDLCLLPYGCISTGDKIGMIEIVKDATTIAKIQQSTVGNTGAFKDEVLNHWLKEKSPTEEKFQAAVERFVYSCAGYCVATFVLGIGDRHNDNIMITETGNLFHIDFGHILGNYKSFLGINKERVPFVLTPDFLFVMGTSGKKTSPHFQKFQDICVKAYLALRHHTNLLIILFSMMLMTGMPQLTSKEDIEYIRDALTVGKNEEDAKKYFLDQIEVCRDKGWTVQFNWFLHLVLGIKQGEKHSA

For `COc1ccc([C@@H](O)c2cc(-c3ncnc4cc(N5CCOCC5)ccc34)c(F)cc2Cl)nn1` [M3814], which IC50 (ATR) is on record?
The IC50 was > 30 µM.

What about the “concentration at which gene targeting is enhanced” value (CCR5 locus in PSCs) of the same compound?
Its value is “effective only at 1 μM”.

What about the “effect on gene targeting vs untreated” value (HBB locus in PSCs) of the same compound?
Its value is “less prominent effect”.

What about the IC50 (PI3Kγ) of the same compound?
The IC50 was 1.59 µM.

And the IC50 (ATM)?
Its IC50 is > 30 µM.

And the “effect on gene targeting vs untreated” value (HBA1 locus in PSCs; 0.5 μM)?
Its value is “less prominent effect”.

What about the “concentration at which gene replacement is improved” value (HBA1 locus in PSCs; tested at 2 and 0.5 μM) of the same compound?
Its value is “effective only at the higher concentration”.
